# Read-outs that look alike come from different tables or passages of the source.
# Legend:
# [1] = Chemical stability (hydrolysis kinetics) of etanidazole in buffered solutions at 80° C.; type: physicochemical; details: for kobs, observed first-order rate constant: mean, n = 3
# Protocol: The k values shown in Tables 1-5 and FIG. 1 should be multipled by a factor of 2.303 to provide the actual k value.
# The chemical stability of etanidazole was evaluated in solutions of varying composition stored at 80° C. Etanidazole was placed into suitable containers and sufficient buffer was added to result in a 1 mg/ml solution. A constant ionic strength of 0.3 was maintained with potassium chloride. All solutions were prepared in triplicate. The solution was divided into 2 ml sealed glass vials and was placed into cardboard storage boxes to protect the compound from light. At appropriate intervals, samples were removed from the stability chamber and cooled to room temperature. An aliquot of the sample was diluted with mobile phase containing internal standard prior to HPLC analysis. For those pH conditions where degradation was rapid, the sample aliquot was immediately quenched to neutral pH and room temperature.
# Data were analyzed using methods as described by Martin et al. in "Physical Pharmacy", 3rd ed, pp 352-395 (1983).
# In the intermediate pH range where buffers were employed, the observed first-order rate constant can be defined at any given pH with the following equation;
# […] [H+]+ko +kOH- [OH-]+kB [BT ]
# where kH+ and kOH- are the second-order specific acid and specifiic base catalysis rate constants, respectively kB is the second-order rate constant for the catalysis due to the buffer, and [BT ] is the total buffer concentration. Plotting kobs vs [BT ] yields a slope of kB and a y-intercept of kH+ [H+]+ko +kOH- [OH-], the observed rate constant extrapolated to zero buffer concentration (k'). The observed rate constant extrapolated to zero buffer concentration (k') are used to generate the pH-rate profile (FIG. 1).
# The buffer systems permit pH control through the equilibrium of their acidic and basic forms. Utilizing these equilibria, the rate constants for the individual buffer species may be calculated. In the acetate buffers, the second-order rate constant for the catalysis due to the acetate buffer is defined as follows;
# […]
# where ^f CH3 COOH is the fraction of the acetate buffer in the neutral form, ^k (CH3 COOH) is the second-order rate constant for the catalysis due to the acetic acid species, ^f CH3 COO- is the fraction of the acetate buffer in the ionized form and ^k CH3 COO- is the second-order rate constant for the catalysis due to the acetate anion. Employing the same buffer for various pH conditions permits the determination of the second-order rate constants for the various species (Table 3).
# [2] = Equilibrium solubility of etanidazole in 0.05M acetate or citrate buffers at pH 4.0 with additives; type: physicochemical; details: for solubility: mean ± SD, read-out: Solubility at 4° C.
# Protocol: Equilibrium solubility of etanidazole in 0.05M acetate or citrate buffers at pH 4.0 and the effects of additives were determined.
structure (smiles),measurement,setting,value
O=C(Cn1ccnc1[N+](=O)[O-])NCCO [Etanidazole],"kobs, observed first-order rate constant","[1]; 0.01M HCl pH 2.2, 80° C.",0.00824 day⁻¹
same,"kobs, observed first-order rate constant","[1]; 0.013M Citrate pH 6.5, 80° C.",0.0106 day⁻¹
same,"kobs, observed first-order rate constant","[1]; 0.02M Citrate pH 5.5, 80° C.",0.00843 day⁻¹
same,"kobs, observed first-order rate constant","[1]; 0.025M Phosphate pH 6.5, 80° C.",0.0195 day⁻¹
same,"kobs, observed first-order rate constant","[1]; 0.03M Citrate pH 6.5, 80° C.",0.0119 day⁻¹
same,"kobs, observed first-order rate constant","[1]; 0.05M Acetate pH 4.0, 80° C.",0.00119 day⁻¹
same,"kobs, observed first-order rate constant","[1]; 0.05M Acetate pH 5.0, 80° C.",0.00386 day⁻¹
same,"kobs, observed first-order rate constant","[1]; 0.05M Borate pH 9.2, 80° C.",0.0333 day⁻¹
same,"kobs, observed first-order rate constant","[1]; 0.05M Citrate pH 3.0, 80° C.",0.00575 day⁻¹
same,"kobs, observed first-order rate constant","[1]; 0.05M Citrate pH 4.5, 80° C.",0.00336 day⁻¹
same,"kobs, observed first-order rate constant","[1]; 0.05M Citrate pH 5.5, 80° C.",0.00957 day⁻¹
same,"kobs, observed first-order rate constant","[1]; 0.05M Phosphate pH 6.5, 80° C.",0.0135 day⁻¹
same,"kobs, observed first-order rate constant","[1]; 0.05M Phosphate pH 7.4, 80° C.",0.0168 day⁻¹
same,"kobs, observed first-order rate constant","[1]; 0.065M Citrate pH 6.5, 80° C.",0.0132 day⁻¹
same,"kobs, observed first-order rate constant","[1]; 0.1M Acetate pH 4.0, 80° C.",0.00185 day⁻¹
same,"kobs, observed first-order rate constant","[1]; 0.1M Acetate pH 5.0, 80° C.",0.00516 day⁻¹
same,"kobs, observed first-order rate constant","[1]; 0.1M Borate pH 9.2, 80° C.",0.0382 day⁻¹
same,"kobs, observed first-order rate constant","[1]; 0.1M Citrate pH 3.0, 80° C.",0.00882 day⁻¹
same,"kobs, observed first-order rate constant","[1]; 0.1M Citrate pH 4.5, 80° C.",0.00587 day⁻¹
same,"kobs, observed first-order rate constant","[1]; 0.1M Citrate pH 5.5, 80° C.",0.0101 day⁻¹
same,"kobs, observed first-order rate constant","[1]; 0.1M HCl pH 1.0, 80° C.",0.0961 day⁻¹
same,"kobs, observed first-order rate constant","[1]; 0.1M NaOH pH 12.6, 80° C.",13.1 day⁻¹
same,"kobs, observed first-order rate constant","[1]; 0.1M Phosphate pH 6.5, 80° C.",0.0149 day⁻¹
same,"kobs, observed first-order rate constant","[1]; 0.1M Phosphate pH 7.4, 80° C.",0.0187 day⁻¹
same,"kobs, observed first-order rate constant","[1]; 0.135M Phosphate pH 7.4, 80° C.",0.0183 day⁻¹
same,"kobs, observed first-order rate constant","[1]; 0.18M Citrate pH 4.5, 80° C.",0.00789 day⁻¹
same,"kobs, observed first-order rate constant","[1]; 0.25M Acetate pH 4.0, 80° C.",0.00342 day⁻¹
same,"kobs, observed first-order rate constant","[1]; 0.25M Acetate pH 5.0, 80° C.",0.00801 day⁻¹
same,"kobs, observed first-order rate constant","[1]; 0.25M Borate pH 9.2, 80° C.",0.0596 day⁻¹
same,"kobs, observed first-order rate constant","[1]; 0.25M Citrate pH 3.0, 80° C.",0.0197 day⁻¹
same,"kobs, observed first-order rate constant","[1]; 0.3M HCl pH 0.62, 80° C.",0.263 day⁻¹
same,"kobs, observed first-order rate constant","[1]; 0.3M NaOH pH 13.1, 80° C.",52.9 day⁻¹
same,"k', first-order rate constant extrapolated to zero buffer concentration","[1]; Acetate pH 4.0, 80° C.",0.000688 day⁻¹
same,"kB, second-order rate constant for the buffer catalysis","[1]; Acetate pH 4.0, 80° C.",1.27e-07 M⁻¹ s⁻¹
same,"k', first-order rate constant extrapolated to zero buffer concentration","[1]; Acetate pH 5.0, 80° C.",0.00296 day⁻¹
same,"kB, second-order rate constant for the buffer catalysis","[1]; Acetate pH 5.0, 80° C.",2.35e-07 M⁻¹ s⁻¹
same,"kB, second-order rate constant for the buffer species","[1]; Acetic acid, 80° C.",9.41e-08 M⁻¹ s⁻¹
same,"kB, second-order rate constant for the buffer species","[1]; Acetic^-1, 80° C.",3.17e-07 M⁻¹ s⁻¹
same,"k', first-order rate constant extrapolated to zero buffer concentration","[1]; Borate pH 9.2, 80° C.",0.0258 day⁻¹
same,"kB, second-order rate constant for the buffer catalysis","[1]; Borate pH 9.2, 80° C.",1.55e-06 M⁻¹ s⁻¹
same,"k', first-order rate constant extrapolated to zero buffer concentration","[1]; Citrate pH 3.0, 80° C.",0.00204 day⁻¹
same,"kB, second-order rate constant for the buffer catalysis","[1]; Citrate pH 3.0, 80° C.",8.15e-07 M⁻¹ s⁻¹
same,"k', first-order rate constant extrapolated to zero buffer concentration","[1]; Citrate pH 4.5, 80° C.",0.00197 day⁻¹
same,"kB, second-order rate constant for the buffer catalysis","[1]; Citrate pH 4.5, 80° C.",3.94e-07 M⁻¹ s⁻¹
same,"k', first-order rate constant extrapolated to zero buffer concentration","[1]; Citrate pH 5.5, 80° C.",0.00824 day⁻¹
same,"kB, second-order rate constant for the buffer catalysis","[1]; Citrate pH 5.5, 80° C.",2.29e-07 M⁻¹ s⁻¹
same,"k', first-order rate constant extrapolated to zero buffer concentration","[1]; Citrate pH 6.5, 80° C.",0.0102 day⁻¹
same,"kB, second-order rate constant for the buffer catalysis","[1]; Citrate pH 6.5, 80° C.",5.57e-07 M⁻¹ s⁻¹
same,"kB, second-order rate constant for the buffer species","[1]; Citrate^-3, 80° C.",9.4e-07 M⁻¹ s⁻¹
same,"kB, second-order rate constant for the buffer species","[1]; Citric Acid, 80° C.",1.03e-06 M⁻¹ s⁻¹
same,"kB, second-order rate constant for the buffer species","[1]; Dihydrogen citrate^-1, 80° C.",5.3e-07 M⁻¹ s⁻¹
same,"kB, second-order rate constant for the buffer species","[1]; Dihydrogen phosphate^-1, 80° C.",3.95e-07 M⁻¹ s⁻¹
same,"kB, second-order rate constant for the buffer species","[1]; Hydrogen citrate^-2, 80° C.",8.23e-08 M⁻¹ s⁻¹
same,"kB, second-order rate constant for the buffer species","[1]; Hydrogen phosphate^-2, 80° C.",1.17e-07 M⁻¹ s⁻¹
same,"k', first-order rate constant extrapolated to zero buffer concentration","[1]; Phosphate pH 6.5, 80° C.",0.0119 day⁻¹
same,"kB, second-order rate constant for the buffer catalysis","[1]; Phosphate pH 6.5, 80° C.",3.5e-07 M⁻¹ s⁻¹
same,"k', first-order rate constant extrapolated to zero buffer concentration","[1]; Phosphate pH 7.4, 80° C.",0.0161 day⁻¹
same,"kB, second-order rate constant for the buffer catalysis","[1]; Phosphate pH 7.4, 80° C.",2.2e-07 M⁻¹ s⁻¹
same,primary route of degradation,"[1]; analysis of degradation product, 80° C.",through the hydrolysis of the amide linkage
same,buffer catalysis of degradation,"[1]; citrate and acetate at the pH minimum, 80° C.","Citrate and acetate were both catalytic at the pH minimum, with citrate being a stronger catalyst than acetate"
same,pH at which overall rate constant was minimum,"[1]; hydrolysis, 80° C.",approximately 4
same,kinetics of hydrolysis,"[1]; pH range of 0.6 to 12.6, 80° C.",apparent first-order kinetics
same,effect of concentration and ionic strength on stability,"[1]; summary, 80° C.",negligible effects on the stability
same,solubility,"[2]; 0.05m acetate buffer, aqueous buffer, acetate 0.05M pH 4.0, no additive",83.4 ± 26.3 mg/mL
same,solubility,"[2]; 0.05m acetate buffer, acetate 0.05M pH 4.0, 0.065% Imidazole",64.8 ± 32.1 mg/mL
same,solubility,"[2]; 0.05m acetate buffer, acetate 0.05M pH 4.0, 0.13% Ethylenediamine",54.8 ± 30.9 mg/mL
same,solubility,"[2]; 0.05m citrate buffer, aqueous buffer, citrate 0.05M pH 4.0, no additive",36.6 ± 6.4 mg/mL
same,solubility,"[2]; 0.05m citrate buffer, citrate 0.05M pH 4.0, 0.065% Imidazole",95.4 ± 3.7 mg/mL
same,solubility,"[2]; 0.05m citrate buffer, citrate 0.05M pH 4.0, 0.13% Ethylenediamine",61.5 ± 33.9 mg/mL
same,effect of imidazole on etanidazole solubility,"[2]; citrate buffer, pH 4.0, 4° C.",Imidazole increased etanidazole solubility in citrate buffer

# From patent publication US5192784A, “Etanidazole injectable solution” (Du Pont Merck Pharmaceutical Company, priority 1992, dated 1993)
